In patent US20220087987A1, “A METHOD FOR TREATING SWI/SNF COMPLEX-DEFICIENT CANCERS COMPRISING GLUTATHIONE (GSH) METABOLIC PATHWAY INHIBITOR” (National Cancer Center, priority 2018, published 2022):

Columns and labels:
[1] = system: ARID1A-deficient TOV21G OCCC xenografts; experiment: Mouse xenograft model, TOV21G; format: in vivo, mice; settings: APR-246 50 mg/kg
Experimental: All mouse experiments were approved by the National Cancer Center (NCC) animal Ethical Committee. Cells were counted and re-suspended in a 1:1 mixture of 100 μl culture medium and 100 μl Matrigel (BD Biosciences) on ice. […] In the subcutaneous model, once the tumors were palpable (about 3-14 days after implantation), mice were randomly divided into two groups. […] In the doxycycline (Dox) treatment study, TOV21G-shNT cells and TOV21G-shGCLC cells were injected into the flanks of 6-week-old female BALB/c-nu/nu mice. […] In other experiments, TOV21G-shNT cells and TOV21G-shGCLC cells were treated with Dox (0.5 μg/ml) for 4 days and then injected into the flank of 6-week-old female BALB/c-nu/nu mice. […] Tumor growth was measured every several days using calipers. The volume of implanted tumors was calculated using the formula V=L×W2/2, where V is volume (mm^3), L is the largest diameter (mm), and W is the smallest diameter (mm). At the end of the experiment, mice were sacrificed in accordance with standard protocols.
GSH was detected using the GSH-Glo Assay (Promega). Tumor samples derived from xenografts were weighed and washed with PBS. The tumor samples were mixed with 50 μl of PBS and homogenized using a Mini Cordless Grinder (Funakoshi). PBS (950 μl) was added to homogenized tumor samples and centrifuged at 4° C. for 10 min at 15,000 rpm. Tumor extract and 2×GSH-Glo Reagent (25 μl of each) were mixed in white 96-well plates (Greiner) and incubated for 30 min at room temperature. Luciferin Detection Reagent (50 μl) was added and the samples were incubated for 15 min at room temperature. Luminescence was measured using an Envision Multi-label plate reader (PerkinElmer). GSH signal intensities per 1 mg of tumor sample were calculated.
Formalin-fixed, paraffin-embedded ovarian cancer clinical specimens and TOV21G xenografts were deparaffinized and representative whole 4-μm-thick sections were analyzed by IHC. […] The samples were removed from the freezer and equilibrated at −20° C. for approximately 15 minutes before sectioning. Tissue sections (6 μm thick) were placed on positively charged slides, dried, and fixed for 15 minutes at room temperature in 3% formaldehyde, followed by 5 minutes in methanol at −20° C. After fixation, representative sections were analyzed by IHC. […] All IHC staining was performed using a Dako autostainer Link48 (Dako).
First, membrane staining intensity (0, 1+, 2+, or 3+) was determined for each cell in a fixed field. The H-score was assigned using the following formula: [1×(% cells 1+)+2×(% cells 2+)+3×(% cells 3+)]. The final score, ranging from 0 to 300, gives more relative weight to higher-intensity membrane staining in a given tumor sample. The percentage of NOXA-, cleaved caspase-3-, cleaved PARP- and Ki67-positive cells (of the total number of cells) in each slide were counted.

[2] = system: ARID1A-WT and ARID1A-KO HCT116 cells; experiment: Cell viability and colony formation assays; format: cell-based, human; settings: cell viability 5 days, colony formation 10 days
Experimental: (§1) Cell viability was examined by measuring the cellular ATP level using the CellTiter-Glo Luminescent Cell Viability Assay (Promega). To measure cell viability after siRNA-mediated knockdown, cell lines were transfected with siRNAs (25 nM) using Lipofectamine RNAiMAX. After 48 hrs, cells were trypsinized and repeatedly transfected with siRNAs (25 nM) using Lipofectamine RNAiMAX. Cells were trypsinized after a further 48 hrs, counted, and reseeded at the specified density in 96-well plates. To measure cell viability after drug treatment, cells were trypsinized, counted, reseeded at the specified density in 96-well plates, and exposed to the indicated concentrations of drugs. Cell viability was measured using the CellTiter-Glo Luminescent Cell Viability Assay. Luminescence was measured using an Envision Multi-label plate reader (PerkinElmer).
The effect of drug treatment on cancer cell survival was evaluated in a colony formation assay. Cells were trypsinized, counted, reseeded at the specified density in 12-well plates, exposed to the indicated concentrations of drugs for 10-14 days, and fixed for 10 min in 50% (v/v) methanol containing 0.01% (w/v) crystal violet. Images were taken on LAS-3000 Imaging System (Fujifilm) and colonies were counted using Multi Gauge software.

[3] = system: SWI/SNF complexes (SMARCA2, SMARCA4, SMARCB1, PBRM1) deficient cancer cells; experiment: Cell viability of SWI/SNF complex-deficient cancer cell lines; format: cell-based, human; settings: treatment for 6 days
Experimental: as §1

[4] = system: uterine cancer cell lines; experiment: Cell viability of uterine cancer cell lines; format: cell-based, human; settings: treatment for 6 days
Experimental: as §1

[5] = system: diffuse-type gastric cancer PDCs; experiment: Cell viability of diffuse-type gastric cancer PDCs; format: cell-based, human; settings: treatment for 6 days
[6] = system: TrxR (TrxR1, TrxR2 and TrxR3); experiment: Detection of TrxR activity; format: cell-based, human; settings: 24 hrs
Experimental: TrxR activity including TrxR1, TrxR2 and TrxR3 was measured using the Thioredoxin Reductase Assay Kit (Abcam). Cells were trypsinized, counted, reseeded at the specified density in 10 cm dishes and exposed to the indicated concentrations of APR-246. After 24 hrs, cells were washed with cold PBS and lysed with buffer containing a proteinase inhibitor. After centrifugation, the supernatant was supplemented with a TrxR inhibitor and incubated for 20 min at 25° C. Absorbance was measured using an Envision Multi-label plate reader (PerkinElmer). Relative TrxR ratios were normalized against untreated samples.

## COCC1(CO)C(=O)C2CCN1CC2 (stereo not drawn) [APR-246]
[1]
  GSH level in xenograft cells: decreased
  apoptotic markers NOXA, cleaved PARP, cleaved caspase-3 and proliferation marker Ki67 (IHC): markedly increased expression of the apoptotic markers NOXA, cleaved PARP, and cleaved caspase-3, and decreased expression of the cell proliferation marker Ki67
  oxidative stress marker 8-OHdG (IHC, H-score): increased the level of the oxidative stress marker 8-hydroxy-2′-deoxyguanosine (8-OHdG) markedly
[1]; BSO 750 mg/kg
  tumor weight: reduced
[1]; BSO 750 mg/kg once a day
  body weight of mice: did not cause significant loss of body weight
[1]; intraperitoneally once daily 12-14 days, BSO 750 mg/kg
  growth of xenografts (tumor volume): significantly suppressed the growth
[2]
  growth / survival of ARID1A-KO versus ARID1A-WT cells: markedly decreased the survival of ARID1A-KO cells, but not ARID1A-WT cells
[3]
  IC50 values in SWI/SNF complexes deficient versus wild-type cell lines: markedly lower in these SWI/SNF complexes deficient cell lines than in wild-type cell lines
[4]
  IC50 values in ARID1A-deficient versus ARID1A-proficient uterine cancer cell lines: markedly lower in three ARID1A-deficient cell lines than in two ARID1A-proficient cell lines
[5]
  IC50 values in ARID1A-deficient versus ARID1A-proficient PDCs: markedly lower in ARID1A-deficient PDCs than in ARID1A-proficient PDCs
[6]; ARID1A-WT or ARID1A-KO HCT116 cells, same concentrations as decrease GSH
  TrxR activity: did not affect TrxR activity
[6]; HCT116 cells, 50 μM
  TrxR activity at a higher concentration: suppressed TrxR activity
